System: RintRC_3892
Conditions: read-out: K0.5; 20 mM TES-KOH pH 8, 30-33 mM NaCl (Na+-dependent), 30°C, light; labelled compound; n = 5; actual K0.5 might be somewhat higher because of non-labelled bicarbonate

## O=C(O)O [bicarbonate]
  Km: ~464 µM

Source: paper PMC12596568, “Retention of a SulP-family bicarbonate transporter in a periplasmic N2-fixing cyanobacterial endosymbiont of an open ocean diatom” (The ISME Journal, 2025)
